PubChem BioAssay (NCI)
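Assay format: 96-well plates, 48-hour exposure. GI50 marks 50% less growth. TGI marks complete inhibition of growth.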

Key:
Assay in all cases: DTP human tumour cell line panel, 48 h
OVCAR-3 ovarian = test system: OVCAR-3 ovarian
NCI/ADR-RES ovarian = test system: NCI/ADR-RES ovarian
HCT-116 colon = test system: HCT-116 colon
NCI-H522 lung = test system: NCI-H522 lung
SF-268 CNS = test system: SF-268 CNS
ACHN renal = test system: ACHN renal
PC-3 prostate = test system: PC-3 prostate
MCF7 breast = test system: MCF7 breast
TK-10 renal = test system: TK-10 renal
CAKI-1 renal = test system: CAKI-1 renal

Row | Compound | GI50 (OVCAR-3 ovarian) | TGI (OVCAR-3 ovarian) | GI50 (NCI/ADR-RES ovarian) | TGI (NCI/ADR-RES ovarian) | GI50 (HCT-116 colon) | TGI (HCT-116 colon) | GI50 (NCI-H522 lung) | TGI (NCI-H522 lung) | GI50 (SF-268 CNS) | TGI (SF-268 CNS) | GI50 (ACHN renal) | TGI (ACHN renal) | GI50 (PC-3 prostate) | TGI (PC-3 prostate) | GI50 (MCF7 breast) | TGI (MCF7 breast) | GI50 (TK-10 renal) | TGI (TK-10 renal) | GI50 (CAKI-1 renal) | TGI (CAKI-1 renal)
1 | COc1ccc([C@@H]2[C@@H](Oc3ccccc3)C(=O)N2c2cc(OC)c(OC)c(OC)c2)cc1F | 0.0511 µM | > 100 µM | 0.0949 µM | > 100 µM | 0.161 µM | 2.45 µM | 0.0276 µM | 0.332 µM | 0.222 µM | > 100 µM | 0.0699 µM | > 100 µM | 0.23 µM | > 100 µM | 0.0409 µM | > 100 µM | 6.52 µM | > 100 µM |  | 
2 | O=C(O)c1cn(C2CC2)c2cc(N3CCN(C(=O)N(c4ccccc4)c4nc(-c5ccccc5)cs4)CC3)c(F)cc2c1=O |  |  |  |  | 0.351 µM | > 100 µM |  |  | 0.389 µM | > 100 µM |  |  |  |  | 0.358 µM | > 100 µM | 1.09 µM | 32.6 µM |  | 
3 | C=CCN(CC=C)Cc1c[nH]c2ccccc12 |  |  | 18.3 µM | 43.8 µM | 14.6 µM | 32.1 µM | 14.9 µM | 33.8 µM | 11.5 µM | 32.5 µM | 36.3 µM | > 100 µM | 32.4 µM | > 100 µM | 3 µM | 19.7 µM | 6.93 µM | 38.7 µM | 19.8 µM | > 100 µM
4 | c1cc(OCCCCCOc2cccc(-c3nc4ccccc4[nH]3)c2)cc(-c2nc3ccccc3[nH]2)c1 | 1.53 µM | > 100 µM | 1.99 µM | 7.91 µM | 2.07 µM | > 100 µM | 2.48 µM | > 100 µM | 5.12 µM | > 100 µM | 2.35 µM | 46.2 µM |  |  |  |  | 3.88 µM | > 100 µM | 1.79 µM | 8.65 µM
5 | CN(C)[C@@H]1C(=O)C(C(=O)NCc2nc3[nH]cnc(=S)c3[nH]2)=C(O)[C@@]2(O)C(=O)C3=C(O)c4c(O)cccc4[C@@](C)(O)[C@H]3C[C@@H]12 | 2.52 µM | > 100 µM | 6.13 µM | > 100 µM | 3.3 µM | > 100 µM | > 100 µM | > 100 µM |  |  | 16.1 µM | > 100 µM | 29.7 µM | > 100 µM | 1.57 µM | > 100 µM |  |  | 3 µM | > 100 µM
6 | COc1cc2c(cc1OCCN1CCN(CCN3C(=O)c4cccc5cccc(c45)C3=O)CC1)N=C[C@@H]1CCCN1C2=O | 15.8 µM | 33.5 µM | 11.9 µM | 28.2 µM |  |  | 18.8 µM | 34.8 µM | 15.8 µM | 33 µM | 17.2 µM | 31.5 µM | 18.1 µM | 32 µM | 15.8 µM | 32.4 µM | 19.9 µM | 37.1 µM | 13.6 µM | 30.2 µM
7 | CN(C)CCCC1(c2ccc(F)cc2)OCc2cc(-c3csc4ccccc34)ccc21 (configuration not stated) | 1.73 µM | 3.26 µM | 1.59 µM | 3.07 µM |  |  | 1.65 µM | 3.48 µM | 1.64 µM | 3.19 µM | 1.64 µM | 3 µM | 1.73 µM | 3.29 µM | 1.67 µM | 3.27 µM | 1.6 µM | 3.16 µM | 1.62 µM | 3.05 µM
